This note sets out measurements from patent US6872745B2, “Antipicornaviral compounds and compositions, their pharmaceutical uses, and materials for their synthesis” (Agouron Pharmaceuticals, Inc., priority 2000, dated 2005).

Some results are limits rather than exact numbers.

Series [1] concerns the target T1, rhinovirus 3C protease, serotype 14 (Human rhinovirus 14, UniProt P03303).
T1 construct: Recombinant rhinovirus 3C proteases; made in house
Briefly: Inhibition of rhinovirus 3C protease (FRET assay, enzyme start). It is filed as biochemical. The conditions noted are these: HRV-14 3C protease, progress curves, read-out: Kobs/I. The method, then: Stock solutions (50 mM, in DMSO) of various compounds were prepared; dilutions were in the same solvent. Recombinant rhinovirus 3C proteases (see Birch et al., “Purification of recombinant human rhinovirus 14 3C protease expressed in Escherichia coli,” Protein Expr. Pur. (1995), vol. 6(5), 609-618) from serotypes 14, 16, and 2 were prepared by the following standard chromatographic procedures: (1) ion exchange using Q Sepharose Fast Flow from Pharmacia; (2) affinity chromatography using Affi-Gel Blue from Biorad; and (3) sizing using Sephadex G-100 from Pharmacia. Each assay sample contained 2% DMSO, 50 mM tris pH 7.6, 1 mM EDTA, a test compound at the indicated concentration, approximately 1 μM substrate, and 50-100 nM protease. The kobs/I values were obtained from reactions initiated by addition of enzyme rather than substrate. RVP activity was measured in the fluorescence resonance energy transfer assay. The substrate was (N-terminal) DABCYL-(Gly-Arg-Ala-Val-Phe-Gln-Gly-Pro-Val-Gly)-EDANS. In the uncleaved peptide, the EDANS fluorescence was quenched by the proximal DABCYL moiety. When the peptide was cleaved, the quenching was relieved, and activity was measured as an increase in fluorescence signal. The tabulated data in the column designated kobs/[I] were measured from progress curves in enzyme start experiments.

The test system of another series is HRV-14. Briefly: Antirhinoviral H1-HeLa cell culture assay (XTT cell protection). The series is classed as cell-based, human rhinovirus. The conditions noted are these: Rhinovirus B, HRV14, H1-HeLa, HRV-14, H1-HeLa cells. As for the experimental part:
(§1) In this cell protection assay, the ability of compounds to protect cells against HRV infection was measured by the XTT dye reduction method, which is described in Weislow et al., J. Natl. Cancer Inst. (1989), vol. 81, 577-586. H1-HeLa cells were infected with HRV-14 at a multiplicity of infection (m.o.i.) of 0.13 (virus particles/cell) or mock-infected with medium only. Infected or mock-infected cells were resuspended at 8×10^5 cells per ml, and incubated with appropriate concentrations of the compounds to be tested. Two days later, XTT/PMS was added to test plates and the amount of formazan produced was quantified spectrophotometrically at 450/650 nm. The EC50 value was calculated as the concentration of compound that increased the percentage of formazan production in compound-treated, virus-infected cells to 50% of that produced by compound-free, mock-infected cells. The 50% cytotoxic dose (CC50) was calculated as the concentration of compound that decreased the percentage of formazan produced in compound-treated, mock-infected cells to 50% of that produced by compound-free, mock-infected cells. The therapeutic index (TI) was calculated by dividing the CC50 value by the EC50 value.
(§2) All strains of human rhinovirus (HRV) for use in this assay were purchased from American Type Culture Collection (ATCC), except for HRV serotype-14 (produced from the infectious cDNA clone constructed by Dr. Robert Rueckert, Institute for Molecular Virology, University of Wisconsin, Madison, Wis.). HRV stocks were propagated and viral assays were performed in H1-HeLa cells (ATCC). Cells were grown in minimal essential medium with 10% fetal bovine serum, available from Life Technologies (Gaithersburg, Md.).
In general terms: Tetrazolium assays rely on reduction of a dye to a coloured formazan, in cell work by metabolically active cells.

Series [2] in a line: Cytotoxicity in mock-infected cells of the antirhinoviral assay (XTT). It is filed as cell-based. The conditions noted are these: human, H1-HeLa cells, table line HRV-14. The method, then:
as §1, §2

T1 sequence (P03303 1538-1719): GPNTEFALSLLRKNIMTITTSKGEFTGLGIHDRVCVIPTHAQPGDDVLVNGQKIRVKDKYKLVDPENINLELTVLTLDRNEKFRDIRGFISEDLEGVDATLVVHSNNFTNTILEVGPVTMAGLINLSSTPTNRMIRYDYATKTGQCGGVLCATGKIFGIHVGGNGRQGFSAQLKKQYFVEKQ

For the compound `CCOC(=O)/C=C/[C@H](CCC(N)=O)NC(=O)[C@H](Cc1ccccc1)NC(=O)c1ccc(-c2cc(C)no2)[nH]1` [Compound 21, 6-Carbamoyl-4S-(2S-{[5-(3-methyl-isoxazol-5-yl)-1H-pyrrole-2-carbonyl]-amino}-3-phenyl-propionylamino)-hex-2(trans)-enoic acid ethyl ester], the kinact/KI in series [1] was found to be 1380 M⁻¹ s⁻¹. One may read the EC50 as the concentration needed to bring the measured effect to its halfway point. Higher therefore signals a need for much substance. By CC50 is commonly meant the concentration at which the toxic effect on the cells reaches its halfway point. A lower CC50 goes with greater toxicity to the cells. In the series on HRV-14, `CCOC(=O)/C=C/[C@H](CCC(N)=O)NC(=O)CNC(=O)c1ccc(-c2ccccc2C(F)(F)F)[nH]1` [Compound 20, 6-Carbamoyl-4S-(2S-{[5-(2-trifluoromethyl-phenyl)-1H-pyrrole-2-carbonyl]-amino}-acetylamino)-hex-2(trans)-enoic acid ethyl ester] yielded an EC50 of 16.4 µM. The CC50 at 2 days in series [2] was > 100 µM. Further, in series [1], the kinact/KI was 330 M⁻¹ s⁻¹. Take `CCOC(=O)/C=C/[C@H](C[C@@H]1CCNC1=O)NC(=O)CCC(C)=O` [Compound 43, 4S-(4-oxo-pentanoylamino)-5-(2-oxo-pyrrolidin-3S-yl)-pent-2-enoic acid ethyl ester]: the kinact/KI in series [1] came to 85 M⁻¹ s⁻¹. In the series on HRV-14, `CCOC(=O)/C=C/[C@H](CCC(N)=O)NC(=O)[C@H](Cc1ccccc1)NC(=O)c1ccc(-c2ccccc2C(F)(F)F)[nH]1` [Compound 2, 6-Carbamoyl-4S-{3-phenyl-2S-[(5-(2-trifluoromethyl-phenyl)-1H-pyrrole-2-carbonyl)-amino]-propionylamino}-hex-2(trans)-enoic acid ethyl ester] displayed an EC50 of 0.064 µM. Further, in series [2], the CC50 at 2 days is > 10 µM. In addition, the kinact/KI in series [1] was found to be 32400 M⁻¹ s⁻¹. Regarding `CCOC(=O)/C=C/[C@H](CCC(N)=O)NC(=O)[C@H](Cc1ccccc1)NC(=O)c1ccc(-c2ccccc2C)[nH]1` [Compound 9, 6-Carbamoyl-4S-{3-phenyl-2S-[(5-o-tolyl-1H-pyrrole-2-carbonyl)-amino]-propionylamino}-hex-2(trans)-enoic acid ethyl ester], the kinact/KI in series [1] amounted to 12600 M⁻¹ s⁻¹. For the compound `CCOC(=O)/C=C/[C@H](CCC(N)=O)NC(=O)[C@H](Cc1ccccc1)N(C)C(=O)c1ccc(-c2ccccc2C(F)(F)F)[nH]1` [Compound 41, 6-Carbamoyl-4S-(2S {methyl-[5-(2-trifluoromethyl-phenyl)-1H-pyrrole-2-carbonyl]-amino}-3-3-phenyl-propionylamino)-hex-2(trans)-enoic acid ethyl ester], the EC50 in the series with HRV-14 was 0.5 µM. The CC50 at 2 days in series [2] is > 10 µM. Besides, the kinact/KI in series [1] came out at 10700 M⁻¹ s⁻¹. In the same order, the values of `O=C1OCC/C1=C\[C@H](C[C@@H]1CCNC1=O)NC(=O)[C@H](Cc1ccc(F)cc1)NC(=O)c1ccc(-c2ccccc2)[nH]1` [Compound 27, 5-Phenyl-1H-pyrrole-2-carboxylic acid-{2S-(4-fluorophenyl)-1S-[1-(2-oxo-dihydrofuran-3-ylidinemethyl)-1-(2-oxo-pyrrolidin-3S-methyl)-ethylcarbamoyl]-2S-phenyl-ethyl}-amide] are 1.58 µM, > 10 µM and 11700 M⁻¹ s⁻¹. `CCOC(=O)/C=C/[C@H](CCC(N)=O)NC(=O)[C@H](Cc1ccccc1)NC(=O)c1ccc(C(C)CC(F)(F)F)[nH]1` (stereo partly drawn) [Compound 13, 6-Carbamoyl-4S-(3-phenyl-2S-{[5-(3,3,3-trifluoro-1 methyl-propyl)-1H-pyrrole-2-carbonyl]-amino}-propionylamino)-hex-2(trans)-enoic acid ethyl ester] gave a concentration giving a half-maximal response (EC50) in the series with HRV-14 of 2.01 µM. Besides, the CC50 at 2 days in series [2] is > 10 µM. In addition, in series [1], the kinact/KI was determined as 6570 M⁻¹ s⁻¹.

As for `CCOC(=O)/C=C/[C@H](CCC(N)=O)NC(=O)[C@H](CC(C)C)NC(=O)c1ccc(-c2ccccc2C(F)(F)F)[nH]1` [Compound 17, 6-Carbamoyl-4S-(4-methyl-2S-{[5-(2-trifluoromethyl-phenyl)-1H-pyrrole-2-carbonyl]-amino}-pentanoylamino)-hex-2(trans)-enoic acid ethyl ester], in the series with HRV-14, the EC50 was 2.19 µM. In series [2], the CC50 at 2 days is > 10 µM. In series [1], the kinact/KI worked out at 2900 M⁻¹ s⁻¹.

In turn, `CCOC(=O)/C=C/[C@H](CCC(N)=O)NC(=O)[C@H](Cc1ccccc1)NC(=O)c1ccc(-c2ccccc2Br)[nH]1` [Compound 14, 4S-(2S-{[5-(2-Bromo-phenyl)-1H-pyrrole-2-carbonyl]-amino}-3-phenyl-propionylamino)-6-carbamoyl-hex-2(trans)-enoic acid ethyl ester] returned a concentration for a half-maximal effect (EC50) with HRV-14 of 0.534 µM. For the same compound, the CC50 at 2 days in series [2] was > 10 µM. In addition, the kinact/KI in series [1] came to 34600 M⁻¹ s⁻¹. Take `O=C1OCC/C1=C\[C@H](C[C@@H]1CCNC1=O)NC(=O)[C@H](CC(=O)c1ccc(-c2cccc3ccccc23)[nH]1)Cc1ccc(F)cc1` [Compound 32, 2-(R,S)-(4-Fluorobenzyl)-4-(5-naphthalen-1-yl-1H-pyrrol-2-yl)-4-oxo-N-[2-(2-oxo-dihydro-furan-3-ylidine)-1S-(2-oxo-pyrrolidin-3S-ylmethyl)-ethyl]-butyramide]: the kinact/KI in series [1] worked out at 8300 M⁻¹ s⁻¹. Take `CCOC(=O)/C=C/[C@H](CCC(N)=O)NC(=O)[C@@H](CC(=O)c1ccc(-c2ccccc2C(F)(F)F)[nH]1)Cc1ccccc1` [Compound 40, 4S-{2R-Benzyl-4-oxo-[5-(2-trifluoromethyl-phenyl)-1H-pyrrol-2-yl]-butyrylamino}-6-carbamoyl-hex-2(trans)-enoic acid ethyl ester]: the EC50 with HRV-14 was 1.66 µM. Further, the CC50 at 2 days in series [2] is > 10 µM. In series [1], the kinact/KI is 3180 M⁻¹ s⁻¹.

With `CCOC(=O)/C=C/[C@H](C[C@@H]1CCNC1=O)NC(=O)CCC(=O)c1ccccc1` [Compound 44, 4S-(4-oxo-4-phenyl-butyrylamino)-5-(2-oxo-pyrrolidin-3S-yl)-pent-2-enoic acid ethyl ester], the kinact/KI in series [1] is 1030 M⁻¹ s⁻¹.

Regarding `CCOC(=O)/C=C/[C@H](CCC(N)=O)NC(=O)[C@H](Cc1ccccc1)NC(=O)c1ccc(-c2ccccc2)[nH]1` [Compound 10, 6-Carbamoyl-4S-{3-phenyl-2S-[(5-phenyl-1H-pyrrole-2-carbonyl)-amino]-propionylamino}-hex-2(trans)-enoic acid ethyl ester], the kinact/KI in series [1] turned out to be 2370 M⁻¹ s⁻¹.

On to `O=C1OCC/C1=C\[C@H](C[C@@H]1CCNC1=O)NC(=O)C(CC(=O)c1ccc[nH]1)Cc1ccc(F)cc1` (stereo partly drawn) [Compound 34, 2-(R,S)-(4-Fluorobenzyl)-4-oxo-N-[2-(2-oxo-dihydro-furan-3-ylidine)-1S-(2-oxo-pyrrolidin-3S-ylmethyl)-ethyl]-4-(1H-pyrrol-2-yl)-butyramide], for which, in series [1], the kinact/KI amounted to 520 M⁻¹ s⁻¹.

Turning to `O=C1OCC/C1=C\[C@H](C[C@@H]1CCNC1=O)NC(=O)C(CC(=O)c1ccc(-c2ccccc2)[nH]1)Cc1ccc(F)cc1` (stereo partly drawn) [Compound 31, 2-(R,S)-(4-Fluorobenzyl)-4-oxo-N-[2-(2-oxo-dihydro-furan-3-ylidine)-1S-(2-oxo-pyrrolidin-3S-ylmethyl)-ethyl]-4-(5-phenyl-1H-pyrrol-2-yl)-butyramide], the kinact/KI in series [1] amounted to 900 M⁻¹ s⁻¹.

Consider `CCOC(=O)/C=C/[C@H](C[C@@H]1CCNC1=O)NC(=O)CCC(=O)c1cccc2ccccc12` [Compound 45, 4-S-(4-Naphthalen-1-yl-4-oxo-butyrylamino)-5-(2-oxo-pyrrolidin-3S-yl)-pent-2-enoic acid ethyl ester], for which the kinact/KI in series [1] was found to be 629 M⁻¹ s⁻¹. On the same count and under the same terms, the result for `CCOC(=O)/C=C/[C@H](CCC(N)=O)NC(=O)[C@H](Cc1ccccc1)NC(=O)c1ccc(-c2cc(Cl)ccc2OC)[nH]1` [Compound 4, 6-Carbamoyl-4S-(2S-{[5-(5-chloro-2-methoxy-phenyl)-1H-pyrrole-2-carbonyl]amino}-3-phenyl-propionylamino)-hex-2(trans)-enoic acid ethyl ester] reads 5860 M⁻¹ s⁻¹; that for `CCOC(=O)/C=C/[C@H](C[C@@H]1CCNC1=O)NC(=O)[C@H](Cc1ccc(F)cc1)NC(=O)c1cc2ccccc2[nH]1` [Compound 42, Ethyl-3-{(Indole-2-carboxylic acid)-L-(4-F-Phe)-L-[(S)-Pyrrol-Ala]}-E-Propenoate], 42 M⁻¹ s⁻¹.
